Assay results from PMC5566973 (Frontiers in Pharmacology, 2017).

Tests used:
Na+/K+-ATPase = assay: in vitro; settings: human
Procedure: (§1) Caco-2, MDCK and MDCK-MRP2 cells were donated by Prof. Yan Xie and Yueming Ma from Shanghai University of Traditional Chinese Medicine. The cells were grown in culture dishes (Corning® Costar, Cambridge, MA, USA) using DMEM supplemented with 10% FBS, 1% NEAA and 1% penicillin-streptomycin solution. The cells were cultured in 5% CO2 and […] with 90% relative humidity at 37°C. The medium was replaced every other day during incubation. The cells were passaged every 3–4 days between 70 and 80% confluence at a 1:5 split ratio using 0.25% trypsin-EDTA. For the transport experiments, the cells from passages between 30 and 45 were seeded at 1 × 10^5 cells/cm^2 onto permeable polycarbonate inserts (0.45 μm pore size, seeding surface of 0.6 cm^2, Millipore, MA, USA) in 24-well plastic plates. The media in the culture plates were changed every other day for the first week after seeding and were replaced daily afterward. […] The cells were used for the transport experiments 21–28 (Caco-2) or 5–7 (MDCK and MDCK-MRP2) days after seeding, and only monolayers with a TEER-value above 420 Ω cm^2 were used during the studies.
(§2) The apical (AP) and basolateral (BL) sides are typical of polarized Caco-2, MDCK and MDCK-MRP2 epithelial cells. Before the experiments, the polarized cell monolayers were washed twice with warm HBSS solution and subsequently preincubated (37°C, 30 min). Afterward, HBSS solution on both sides of the cell monolayers was removed using a mini desktop vacuum pump. […] The final DMSO concentration in the HBSS or drug mixture was below 0.5%. The monolayers were incubated at 37°C, and 100 μL samples were taken at 30, 60, 90, and 120 min from the acceptor compartment and immediately replaced with the same volume of prewarmed fresh blank HBSS. TEER measurements for assessing the membrane integrity took place before and after the experiments.
(§3) The apparent permeability coefficients (Papp) and ER were calculated as Equations (2) and (3): […]
(§4) where dQ/dt is the steady-state flux, A is the membrane surface area, and C0 is the initial drug concentration in the donor compartment. PappBA is the Papp-value measured in BL to AP direction and PappAB is the Papp-value measured in AP to BL direction. It indicated the involvement of an active transport process when the ER-value is above 1.5 (Hubatsch et al., [2007]).

BCRP = assay: in vitro; settings: human, Caco-2, PappAB
Procedure: as §1, §2, §3, §4

[1] = test system: ATP (adenosine triphosphate); assay: in vitro; settings: human, Caco-2, PappAB
Procedure: as §1, §2, §3, §4

MDR1 = assay: in vitro; settings: human, Caco-2, PappBA, Caco-2, 2 μM
Procedure: as §1, §2, §3, §4

in vitro = assay: in vitro
Procedure: as §1, §2, §3, §4

MDCK cell monolayers = assay: in vitro
Procedure: as §1, §2, §3, §4

OATs = assay: in vitro; settings: human, Caco-2, PappBA, Caco-2, 2 μM, + Cimetidine 0.05 mM (OATs)
Procedure: as §1, §2, §3, §4

MRP2 = assay: in vitro; settings: human, Caco-2, PappAB
Procedure: as §1, §2, §3, §4

PEPT1 = assay: in vitro; settings: human, Caco-2, PappAB
Procedure: as §1, §2, §3, §4

OATPs = assay: in vitro; settings: human, Caco-2, PappAB
Procedure: as §1, §2, §3, §4

Caco-2 cell monolayers = assay: in vitro
Procedure: as §1, §2, §3, §4

[2] = Caco-2, 2 μM, + Apigenin 0.025 mM (BCRP)
[3] = Caco-2, 2 μM, + ES 0.05 mM (OATPs)
[4] = Caco-2, 2 μM, + Gly-Sar 10 mM (PEPT1)
[5] = Caco-2, 2 μM, + Ko143 0.01 mM (BCRP)
[6] = Caco-2, 2 μM, + MK571 0.05 mM (MRP2)
[7] = Caco-2, 2 μM, + NaN3 10 mM (ATP)
[8] = Caco-2, 2 μM, + Phloretin 0.3 mM (MCTs)
[9] = Caco-2, 2 μM, + Phloridzin 0.5 mM (SGLT1)
[10] = Caco-2, 2 μM, + Probenecid 0.2 mM (MRP2)
[11] = Caco-2, 2 μM, + TEA 5 mM (OCTs/OCTNs)
[12] = Caco-2, 2 μM, Control (no inhibitor or substrate)

Work on COc1ccc2c(c1)[nH]c1c(C)nccc12 [Harmine] yielded a Papp A→B (Na+/K+-ATPase; Caco-2, PappAB) of 13.1 ± 0.93 ×10⁻⁶ cm/s, a Papp B→A (Na+/K+-ATPase; Caco-2, PappBA, Caco-2, 2 μM, + Sodium vanadate 0.05 mM (Na^+)) of 26.2 ± 1.78 ×10⁻⁶ cm/s and a Papp A→B (BCRP) of 19 ± 3.67 ×10⁻⁶ cm/s. The Papp A→B [1] was 14.1 ± 0.39 ×10⁻⁶ cm/s, the Papp B→A (MDR1; + Quinidine 0.1 mM (MDR1)) was 29 ± 3.96 ×10⁻⁶ cm/s and the Papp B→A (MDR1; + Verapamil 0.1 mM (MDR1)) was 28.5 ± 3.77 ×10⁻⁶ cm/s. The Papp A→B (in vitro; dog, MDCK, PappAB, initial concentration 1 μM) was 3.7 ± 0.14 ×10⁻⁶ cm/s, the Papp A→B (in vitro; dog, MDCK, PappAB, initial concentration 2 μM) was 4.6 ± 0.25 ×10⁻⁶ cm/s and the Papp A→B (in vitro; dog, MDCK, PappAB, initial concentration 5 μM) was 7.11 ± 0.89 ×10⁻⁶ cm/s. It also gave a Papp B→A (in vitro; dog, MDCK, PappBA, initial concentration 1 μM) of 5.81 ± 0.19 ×10⁻⁶ cm/s, a Papp B→A (in vitro; dog, MDCK, PappBA, initial concentration 2 μM) of 7.32 ± 0.19 ×10⁻⁶ cm/s and a Papp B→A (in vitro; dog, MDCK, PappBA, initial concentration 5 μM) of 11.6 ± 0.15 ×10⁻⁶ cm/s. For the same compound, the Papp A→B (in vitro; dog, MDCK, pH 5.5, PappAB, 2 μM, pH 5.5) was 2.24 ± 0.29 ×10⁻⁶ cm/s, the Papp B→A (in vitro; dog, MDCK, pH 5.5, PappBA, 2 μM, pH 5.5) was 3.42 ± 0.48 ×10⁻⁶ cm/s and the Papp A→B (in vitro; human, Caco-2, PappAB, Caco-2, 2 μM, 4°C) was 1.58 ± 0.57 ×10⁻⁶ cm/s. For the same compound, the Papp A→B (in vitro; human, Caco-2, PappAB, Caco-2, initial concentration 1 μM) was 15.1 ± 0.73 ×10⁻⁶ cm/s, the Papp A→B (in vitro; human, Caco-2, PappAB, Caco-2, initial concentration 2 μM) was 18.8 ± 1.26 ×10⁻⁶ cm/s and the Papp A→B (in vitro; human, Caco-2, PappAB, Caco-2, initial concentration 5 μM) was 31.1 ± 1.42 ×10⁻⁶ cm/s. The Papp B→A (in vitro; human, Caco-2, PappBA, Caco-2, 2 μM, 4°C) was 2.41 ± 0.85 ×10⁻⁶ cm/s, the Papp B→A (in vitro; human, Caco-2, PappBA, Caco-2, initial concentration 1 μM) was 22.8 ± 0.25 ×10⁻⁶ cm/s and the Papp B→A (in vitro; human, Caco-2, PappBA, Caco-2, initial concentration 2 μM) was 29.3 ± 1.21 ×10⁻⁶ cm/s. For the same compound, the Papp B→A (in vitro; human, Caco-2, PappBA, Caco-2, initial concentration 5 μM) was 48.3 ± 2.81 ×10⁻⁶ cm/s, the Papp A→B (in vitro; human, Caco-2, pH 5.5, PappAB, Caco-2, 2 μM, pH 5.5) was 5.27 ± 0.29 ×10⁻⁶ cm/s and the Papp B→A (in vitro; human, Caco-2, pH 5.5, PappBA, Caco-2, 2 μM, pH 5.5) was 4.17 ± 1.03 ×10⁻⁶ cm/s. The PappAB (MDCK cell monolayers; 2 μM, 4°C) was 1.85 ± 0.55^*** 1 × 10^−6 cm/s, the PappAB (MDCK cell monolayers; 2 μM, Control (pH 7.4, 37°C, without EDTA)) was 4.60 ± 0.25 1 × 10^−6 cm/s and the PappAB (MDCK cell monolayers; 2 μM, with EDTA 5 mM) was 7.47 ± 1.31^* 1 × 10^−6 cm/s. The PappBA (MDCK cell monolayers; 2 μM, with EDTA 5 mM) was 8.98 ± 0.90 1 × 10^−6 cm/s, the PappAB (MDCK cell monolayers; 2 μM, with EDTA 5 mM, listed as harmine) was 7.47 ± 1.31 1 × 10^−6 cm/s and the PappBA (MDCK cell monolayers; dog, pH 7.4) was 7.32 ± 0.19 1 × 10^−6 cm/s. It also gave a Papp B→A (OATs) of 27.6 ± 1.54 ×10⁻⁶ cm/s, a Papp A→B (MRP2) of 29.9 ± 2.14 ×10⁻⁶ cm/s and a Papp A→B (PEPT1) of 18.3 ± 1.28 ×10⁻⁶ cm/s. The Papp A→B (OATPs) was 14.6 ± 1.31 ×10⁻⁶ cm/s, the PappAB (Caco-2 cell monolayers; Caco-2, 2 μM, 4°C) was 1.58 ± 0.57 1 × 10^−6 cm/s and the Modulatory effect (Caco-2 cell monolayers; [2]) was “−”. The PappBA (Caco-2 cell monolayers; [2]) was 28.40 ± 4.27 1 × 10^−6 cm/s, the Modulatory effect (Caco-2 cell monolayers; Caco-2, 2 μM, + Cimetidine 0.05 mM (OATs)) was “−” and the Modulatory effect (Caco-2 cell monolayers; [3]) was “+”. The PappAB (Caco-2 cell monolayers; [3]) was 14.64 ± 1.31 1 × 10^−6 cm/s, the PappBA (Caco-2 cell monolayers; [3]) was 28.43 ± 1.89 1 × 10^−6 cm/s and the Modulatory effect (Caco-2 cell monolayers; [4]) was “−”. For the same compound, the PappBA (Caco-2 cell monolayers; [4]) was 27.86 ± 1.96 1 × 10^−6 cm/s, the Modulatory effect (Caco-2 cell monolayers; [5]) was “−” and the PappBA (Caco-2 cell monolayers; [5]) was 27.96 ± 3.86 1 × 10^−6 cm/s. The Modulatory effect (Caco-2 cell monolayers; [6]) was “+”, the PappBA (Caco-2 cell monolayers; [6]) was 29.36 ± 2.73 1 × 10^−6 cm/s and the Modulatory effect (Caco-2 cell monolayers; [7]) was “+”. The PappBA (Caco-2 cell monolayers; [7]) was 27.94 ± 1.76 1 × 10^−6 cm/s, the Modulatory effect (Caco-2 cell monolayers; [8]) was “−” and the PappBA (Caco-2 cell monolayers; [8]) was 27.37 ± 2.13 1 × 10^−6 cm/s. The Modulatory effect (Caco-2 cell monolayers; [9]) was “−”, the PappBA (Caco-2 cell monolayers; [9]) was 29.39 ± 1.30 1 × 10^−6 cm/s and the Modulatory effect (Caco-2 cell monolayers; [10]) was “+”. The PappBA (Caco-2 cell monolayers; [10]) was 27.93 ± 2.33 1 × 10^−6 cm/s, the Modulatory effect (Caco-2 cell monolayers; Caco-2, 2 μM, + Quinidine 0.1 mM (MDR1)) was “−” and the Modulatory effect (Caco-2 cell monolayers; Caco-2, 2 μM, + Sodium vanadate 0.05 mM (Na^+)) was “+”. For the same compound, the Modulatory effect (Caco-2 cell monolayers; [11]) was “+”, the PappBA (Caco-2 cell monolayers; [11]) was 28.05 ± 1.20 1 × 10^−6 cm/s and the Modulatory effect (Caco-2 cell monolayers; Caco-2, 2 μM, + Verapamil 0.1 mM (MDR1)) was “−”. For the same compound, the PappAB (Caco-2 cell monolayers; [12]) was 18.52 ± 2.06 1 × 10^−6 cm/s, the PappBA (Caco-2 cell monolayers; [12]) was 29.40 ± 1.38 1 × 10^−6 cm/s and the PappBA (Caco-2 cell monolayers; Caco-2, 2 μM, Control (pH 7.4, 37°C, without EDTA)) was 29.34 ± 1.21 1 × 10^−6 cm/s. For the same compound, the PappBA (Caco-2 cell monolayers; Caco-2, 2 μM, with EDTA 5 mM) was 29.67 ± 2.22 1 × 10^−6 cm/s, the “increase of PappAB” value (Caco-2 cell monolayers; Caco-2, + MK571 vs control) was 1.62 folds and the “increase of PappAB” value (Caco-2 cell monolayers; Caco-2, + probenecid vs control) was 1.27 folds. For the same compound, the “ER-values at the tested concentrations” value (Caco-2 cell monolayers; Caco-2 and MDCK, 1, 2, and 5 μM) was greater than 1.5, the PappAB (Caco-2 cell monolayers; human, Caco-2) was 24.11 ± 2.53^* 1 × 10^−6 cm/s and the PappAB (Caco-2 cell monolayers; human, Caco-2, pH 7.4) was 18.78 ± 1.26 1 × 10^−6 cm/s.
